Measurements from patent US5106407A, “Iodones and methods for antimicrobial use” (priority 1989, dated 1992).

What was measured:
[1] = tested on: Bacillus subtilis; test: minimum inhibitory concentration (MIC), agar dilution; type: cell-based; settings: Bacillus subtilis, ATCC8473; ATCC 8473; nutrient agar pH 6.8; read-out: MIC
Protocol: (§1) The minimum inhibitory concentration (MIC) for the compound of Example 19, i.e., (2-nitrophenyl)-iodonium 2,2-dimethyl-4,6-dioxo-1,3-dioxan-5-ylide was determined for 9 bacteria (using nutrient agar) and 5 yeast and fungi (using malt yeast agar). A one percent solution of this test compound (i.e., the compound of Example 19) was prepared in a mixture of acetone-water. Nutrient agar was prepared at pH 6.8 using deionized water according to standard Difco procedures. Malt yeast agar was prepared by adding 3 g Bacto yeast extract and 42 g Bacto Malt agar per liter of deionized water. The agar (nutrient agar when testing with bacteria and malt yeast agar when testing with yeast and fungi) was dispensed in 30 mL aliquots into 25×200 millimeter (mm) test tubes, capped and autoclaved for 15 min at 115° C. The test tubes containing the agar were cooled in a water bath until the temperature of the agar was 48° C. and then an appropriate amount of the one percent solution of the test compound was added (except in the controls where no test compound was added with the acetone-water) to the respective test tubes so that final concentrations of 500, 250, 100, 50, 25, 10, 5, 2.5, 1.0 and 0 parts per million (ppm) of the test compound in the agar were obtained. The agar solutions were each mixed and poured into individual petri plates so that each petri plate contained agar having a known concentration of test compound dispersed therein. After drying for 24 hr, the petri plates were inoculated with bacteria when the petri plates contained nutrient broth agar or with fungi and yeast when the petri plates contained malt yeast agar.
(§2) The inoculation with bacteria was accomplished using the following procedure. Twenty-four hr cultures of each of the bacteria were prepared by incubating the respective bacteria in tubes containing nutrient broth for 24 hr at 30° C. in a shaker. Dilutions of each of the 24 hr cultures were made so that 9 separate suspensions (one for each of the 9 test bacteria) were made, each containing about 10^8 colony forming units (CFU) per mL of suspension of a particular bacteria. Aliquots of 0.3 mL of each of the above suspensions were used to fill individual wells of a Steer's Replicator. For each microbial suspension, 0.3 mL was used to fill 3 wells (i.e., 3 wells of 0.3 mL each) so that for the 9 different bacteria 27 wells were filled. The Steer's Replicator was then used to inoculate the petri plates.
(§3) The petri plates were incubated at 30° C. for 48 hr and then read to determine if the test compound (i.e., the compound of Example 19) which was incorporated into the agar prevented growth of the respective bacteria. The minimum inhibitory concentration (MIC) for each bacteria was defined as the lowest concentration of the test compound which prevented growth of that bacteria.
(§4) In a similar procedure, the MIC (in ppm) of the compound of Example 11 (i.e., (2-nitrophenyl)-iodonium 2,6-dioxocyclohexylide) for various organisms was determined at an acid pH (about 6.8) and at an alkaline pH (about 8.2).
(§5) Using similar procedures, the MIC's (in ppm) of various compounds of Formula I and/or Formula II were determined for the organisms Enterobacter aerogenes and Bacillus subtilis in a neutral solution (pH about 6.8) and in an alkaline medium (pH about 8.2).

[2] = tested on: Enterobacter aerogenes; test: as above; type: cell-based; settings: Klebsiella aerogenes, ATCC13048; ATCC 13048; nutrient agar pH 6.8; read-out: MIC
Protocol: as §1, §2, §3, §4, §5

[3] = tested on: mixture of bacterial organisms listed in Table 1; test: latex preservation test
Protocol: The latex was a vinylidene chloride-butadiene copolymer with a pH of 6.1.
Fifty gram aliquots of the latex were placed in sterile bottles and one hundred gram aliquots of the diluted cutting oil were placed in 250-mL Erlenmeyer flasks. An appropriate amount of a fresh 1 percent stock solution of (2-nitrophenyl)-iodonium 2,2-dimethyl-4,6-dioxo-1,3-dioxan-5-ylide in acetone-water was added to achieve the desired final concentrations (see Tables 5 and 6). A small portion of the respective latex or cutting oil preparation was then streaked onto Tryptic Soy Agar (TSA) petri plates using sterile cotton swabs to determine whether the preparations were sterile. If the particular preparation was sterile, it was then inoculated with an appropriate volume (0.1 mL for the latex and 0.2 mL for the cutting oil) of a mixture of equal aliquots of 24 hr cultures of each of the bacterial organisms listed in Table 1 (not the fungi and yeast). The latex samples were incubated at 30° C. and the cutting oils were agitated on a rotary shaker at room temperature. After 24 hr, all samples were again streaked on TSA. All plates were then incubated at 30° C. for 48 hr and then rated 1 to 10 according to the growth rating system described in Table 4.
The results from this first set of streaks after inoculation are listed in the columns labeled streak number 1 in Tables 5 and 6. Samples with a rating of 3 or less from streak number 1 were reinoculated as described for the first inoculation above. Samples with a rating of 4 or greater were not reinoculated. After another 24 hr all samples were again restreaked on TSA agar. The results from these second streaks were labeled streak number 2 in Tables 5 and 6. Samples were reinoculated and restreaked in this fashion for a maximum of 10 streaks. Any samples with two streaks in a row with a ten rating were not restreaked again.

CC1(C)OC(=O)[C-]([I+]c2ccccc2[N+](=O)[O-])C(=O)O1 [Example 19, (2-Nitrophenyl)-iodonium 2,2-dimethyl-4,6-dioxo-1,3-dioxan-5-ylide]
9: growth rating ([3]; 25 ppm, streak 2)
1 (0): growth rating ([3]; 25 ppm, streak 1) | growth rating ([3]; 25 ppm, streak 3) | growth rating ([3]; 25 ppm, streak 4) | growth rating ([3]; 25 ppm, streak 5) | growth rating ([3]; 25 ppm, streak 6) | growth rating ([3]; 25 ppm, streak 7) | growth rating ([3]; 25 ppm, streak 8) | growth rating ([3]; 50 ppm, streak 1) | growth rating ([3]; 50 ppm, streak 3) | growth rating ([3]; 50 ppm, streak 4) | growth rating ([3]; 50 ppm, streak 5) | growth rating ([3]; 50 ppm, streak 6) | growth rating ([3]; 50 ppm, streak 7) | growth rating ([3]; 50 ppm, streak 8) | growth rating ([3]; 50 ppm, streak 9) | growth rating ([3]; 50 ppm, streak 10) | growth rating ([3]; 100 ppm, streak 1) | growth rating ([3]; 100 ppm, streak 3) | growth rating ([3]; 100 ppm, streak 4) | growth rating ([3]; 100 ppm, streak 5) | growth rating ([3]; 100 ppm, streak 6) | growth rating ([3]; 100 ppm, streak 7) | growth rating ([3]; 100 ppm, streak 8) | growth rating ([3]; 100 ppm, streak 9) | growth rating ([3]; 100 ppm, streak 10) | growth rating ([3]; 250 ppm, streak 1) | growth rating ([3]; 250 ppm, streak 2) | growth rating ([3]; 250 ppm, streak 3) | growth rating ([3]; 250 ppm, streak 4) | growth rating ([3]; 250 ppm, streak 5) | growth rating ([3]; 250 ppm, streak 6) | growth rating ([3]; 250 ppm, streak 7) | growth rating ([3]; 250 ppm, streak 8) | growth rating ([3]; 250 ppm, streak 9) | growth rating ([3]; 250 ppm, streak 10) | growth rating ([3]; 500 ppm, streak 1) | growth rating ([3]; 500 ppm, streak 2) | growth rating ([3]; 500 ppm, streak 3) | growth rating ([3]; 500 ppm, streak 4) | growth rating ([3]; 500 ppm, streak 5) | growth rating ([3]; 500 ppm, streak 6) | growth rating ([3]; 500 ppm, streak 7) | growth rating ([3]; 500 ppm, streak 8) | growth rating ([3]; 500 ppm, streak 9) | growth rating ([3]; 500 ppm, streak 10) | growth rating ([3]; 1000 ppm, streak 1) | growth rating ([3]; 1000 ppm, streak 2) | growth rating ([3]; 1000 ppm, streak 3) | growth rating ([3]; 1000 ppm, streak 4) | growth rating ([3]; 1000 ppm, streak 5) | growth rating ([3]; 1000 ppm, streak 6) | growth rating ([3]; 1000 ppm, streak 7) | growth rating ([3]; 1000 ppm, streak 8) | growth rating ([3]; 1000 ppm, streak 9) | growth rating ([3]; 1000 ppm, streak 10)
1 µg/mL: MIC [2]
≤ 1 µg/mL: MIC [1]
